Test results taken from ChEMBL document CHEMBL5058646 (2022).

Assays:
[1] = target: Calcium/calmodulin-dependent protein kinase type II subunit beta (Homo sapiens) (UniProt Q13554); test: CAMK2B SGC Tm panel (DSF); details: Compound concentration 20.0 uM
[2] = target: Serine/threonine-protein kinase 24 (Homo sapiens) (UniProt Q9Y6E0); test: STK24 SGC Tm panel (DSF); details: Compound concentration 20.0 uM
[3] = target: T1, Zinc finger and BTB domain-containing protein 24 (Homo sapiens) (UniProt O43167); details: SUD4, Compound concentration 1.0 uM
T1 sequence (whole entry): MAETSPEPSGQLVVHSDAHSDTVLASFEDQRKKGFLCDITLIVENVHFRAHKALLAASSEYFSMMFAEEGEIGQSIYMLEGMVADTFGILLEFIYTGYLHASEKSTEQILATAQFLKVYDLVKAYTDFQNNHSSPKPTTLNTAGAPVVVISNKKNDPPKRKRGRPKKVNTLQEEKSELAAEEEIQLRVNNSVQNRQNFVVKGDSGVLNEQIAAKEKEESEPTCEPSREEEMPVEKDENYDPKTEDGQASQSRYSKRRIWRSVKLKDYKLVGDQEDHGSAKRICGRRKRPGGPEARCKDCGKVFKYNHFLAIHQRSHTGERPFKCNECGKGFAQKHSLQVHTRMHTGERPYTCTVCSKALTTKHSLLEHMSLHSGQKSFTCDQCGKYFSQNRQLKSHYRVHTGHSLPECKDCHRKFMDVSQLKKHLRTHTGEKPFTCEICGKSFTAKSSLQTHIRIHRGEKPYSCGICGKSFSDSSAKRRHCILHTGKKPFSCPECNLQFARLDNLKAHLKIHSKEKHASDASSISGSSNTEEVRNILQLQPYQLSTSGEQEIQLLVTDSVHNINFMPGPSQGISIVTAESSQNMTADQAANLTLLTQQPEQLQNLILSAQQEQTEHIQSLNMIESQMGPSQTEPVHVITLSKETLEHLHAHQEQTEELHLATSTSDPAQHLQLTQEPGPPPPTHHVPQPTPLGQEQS

Serine/threonine-protein kinase 24 (Homo sapiens), sequence (Q9Y6E0 whole entry, looked up, the tested form may be a part): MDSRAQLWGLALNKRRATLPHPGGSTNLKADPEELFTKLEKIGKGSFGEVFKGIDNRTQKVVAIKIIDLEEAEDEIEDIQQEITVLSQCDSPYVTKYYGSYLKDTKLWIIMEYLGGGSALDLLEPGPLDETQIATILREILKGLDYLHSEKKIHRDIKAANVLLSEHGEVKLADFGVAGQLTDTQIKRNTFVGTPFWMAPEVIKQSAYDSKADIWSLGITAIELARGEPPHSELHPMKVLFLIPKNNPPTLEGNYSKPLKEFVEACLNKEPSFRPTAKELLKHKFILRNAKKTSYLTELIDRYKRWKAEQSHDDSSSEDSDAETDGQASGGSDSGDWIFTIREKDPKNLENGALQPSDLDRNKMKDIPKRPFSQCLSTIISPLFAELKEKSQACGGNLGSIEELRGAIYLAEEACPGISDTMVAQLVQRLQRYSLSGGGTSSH
Calcium/calmodulin-dependent protein kinase type II subunit beta (Homo sapiens), sequence (Q13554 whole entry): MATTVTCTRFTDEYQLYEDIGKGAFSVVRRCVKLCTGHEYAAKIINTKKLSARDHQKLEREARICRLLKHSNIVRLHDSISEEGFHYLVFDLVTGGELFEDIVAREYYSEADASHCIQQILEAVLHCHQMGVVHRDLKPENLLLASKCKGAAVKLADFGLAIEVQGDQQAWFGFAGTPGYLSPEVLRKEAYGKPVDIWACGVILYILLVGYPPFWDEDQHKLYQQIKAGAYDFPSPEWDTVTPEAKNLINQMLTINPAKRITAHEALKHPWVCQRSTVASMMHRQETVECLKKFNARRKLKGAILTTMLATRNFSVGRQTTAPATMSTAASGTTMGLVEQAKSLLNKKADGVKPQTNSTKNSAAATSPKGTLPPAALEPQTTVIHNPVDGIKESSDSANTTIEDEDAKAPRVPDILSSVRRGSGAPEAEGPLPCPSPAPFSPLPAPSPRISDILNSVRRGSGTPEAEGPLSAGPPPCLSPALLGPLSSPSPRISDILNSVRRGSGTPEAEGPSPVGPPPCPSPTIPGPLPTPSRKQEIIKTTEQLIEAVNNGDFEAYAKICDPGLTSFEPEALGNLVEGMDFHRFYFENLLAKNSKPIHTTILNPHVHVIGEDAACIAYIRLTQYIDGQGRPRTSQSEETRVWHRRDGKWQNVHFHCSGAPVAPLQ

C[C@@H]1CN(c2ncc(Cl)c(Nc3ccc4c(c3)n(CCC(C)(C)O)c(=O)n4C)n2)C[C@H](C)C1(F)F
inactive: Tm [1] 47 °C | Tm [2] 36 °C | LogFC [3] 0.0258
